According to patent US7365086B2, “Pramipexole acid addition salts” (Synthon IP Inc., priority 2003, dated 2008):
Where a name gives a salt, the structure may show the parent alone.

Experiments:
[1] = DVS, 25° C.
Procedure: The hygroscopicity was measured using a Dynamic Vapor Sorption apparatus or DVS (Surface Measurement Systems Ltd, UK) at 25° C. and at various controlled relative humidity conditions from 0 to 90%.
First the relative humidity was changed from 0% to 60% and back to 0% (cycle 1). Subsequently, the relative humidity was raised by steps of 10% until 90% and reduced with steps of 10% until 0% (cycle 2). Finally, the relative humidity was changed to 60% and back to 0% (cycle 3). At each step the sample was conditioned till constant weight.

[2] = Approximate water solubility of pramipexole acid addition salts (saturation in water, shaken overnight, evaporation and weighing); details: thermodynamic from solid
Procedure: In general the acid addition salt was added to 2 ml of water in a test tube (1 ml of water was used for some of the very soluble salts) until a residue remained. The tube was shaken overnight at room temperature. The next morning 1 ml of the clear solution from above the solid residue was removed from the tube. This sample was evaporated and the residue was dried and weighed. In this way the approximate solubility of the salt in the water was determined.

Structure (SMILES): CCCN[C@H]1CCc2nc(N)sc2C1 [Pramipexole dihydrochloride monohydrate, pramipexole dihydrochloride monohydrate]
- water uptake relative to dry mass at 60% relative humidity ([1]; 60% relative humidity): over 1.2%
- total water uptake relative to the dry mass in the step from 70% and 80% relative humidity ([1]; 70% to 80% relative humidity): 5%
- solubility [2]: > 300 mg/mL
